From patent publication US20110105509A1 (Wyeth, LLC, priority 2009, published 2011)
pIC50: −log10 of the molar value.

molecular target: T1, CRTH2 (Homo sapiens, UniProt Q9Y5Y4); assay: FRET based competitive immunoassay (cAMP) in CRTH2 expressing CHO cells; format: cell-based; conditions: CRTH2 expressing CHO cells incubated with forskolin and PGD2; Eu3+ cryptate-labeled anti-cAMP and d2-labeled cAMP
T1 construct: expressed in transfected cells; host or cells: CHO cells
T1 sequence (Q9Y5Y4 1-395): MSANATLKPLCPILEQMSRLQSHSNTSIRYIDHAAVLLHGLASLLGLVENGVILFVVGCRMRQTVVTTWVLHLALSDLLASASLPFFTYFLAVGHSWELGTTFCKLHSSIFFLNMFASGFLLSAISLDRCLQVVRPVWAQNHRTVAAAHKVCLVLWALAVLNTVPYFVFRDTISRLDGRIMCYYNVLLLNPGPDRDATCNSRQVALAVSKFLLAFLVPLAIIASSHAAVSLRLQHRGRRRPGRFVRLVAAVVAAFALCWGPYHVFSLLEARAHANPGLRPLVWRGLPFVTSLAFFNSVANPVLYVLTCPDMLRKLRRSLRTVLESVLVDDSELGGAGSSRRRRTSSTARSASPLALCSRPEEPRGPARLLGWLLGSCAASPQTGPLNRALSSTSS
Procedure: FRET Assay: To evaluate potency compounds were tested in a FRET based competitive immunoassay in which CRTH2 expressing CHO cells were incubated in the presence of forskolin and PGD2 along with Eu3+ cryptate-labeled anti-cAMP and d2-labeled cAMP.

SMILES | pIC50
Cc1c(-c2nn(C3CC3)c(=O)c3ccccc23)c2ccccc2n1CC(=O)O [Example 178, 2-(3-(3-cyclopropyl-4-oxo-3,4-dihydrophthalazin-1-yl)-2-methyl-1H-indol-1-yl)-acetic acid] | 6.67
Cc1c(-c2nn(C3CCCC3)c(=O)c3ccccc23)c2ccccc2n1CC(=O)O [Example 179, 2-(3-(3-cyclopentyl-4-oxo-3,4-dihydrophthalazin-1-yl)-2-methyl-1H-indol-1-yl)-acetic acid] | < 6.00
Cc1c(-c2ccc(=O)n(C(C)C)n2)c2ccccc2n1CC(=O)O [Example 181, 2-(3-(1-isopropyl-6-oxo-1,6-dihydropyridazin-3-yl)-2-methyl-1H-indol-1-yl)-acetic acid] | 6.04
CCn1nc(-c2c(C)n(CC(=O)O)c3ccccc23)ccc1=O [Example 182, 2-(3-(1-ethyl-6-oxo-1,6-dihydropyridazin-3-yl)-2-methyl-1H-indol-1-yl)-acetic acid] | 5.76
Cc1c(-c2ccc(=O)n(C)n2)c2ccccc2n1CC(=O)O [Example 183, 2-(2-methyl-3-(1-methyl-6-oxo-1,6-dihydropyridazin-3-yl)-1H-indol-1-yl)-acetic acid] | 5.30
Cc1c(-c2ccc(=O)n(CC3CC3)n2)c2ccccc2n1CC(=O)O [Example 184, 2-(3-(1-(cyclopropylmethyl)-6-oxo-1,6-dihydropyridazin-3-yl)-2-methyl-1H-indol-1-yl)acetic acid] | 7.21
Cc1c(-c2ccc(=O)n(CC(F)(F)F)n2)c2ccccc2n1CC(=O)O [Example 185, 2-(2-methyl-3-(6-oxo-1-(2,2,2-trifluoroethyl)-1,6-dihydropyridazin-3-yl)-1H-indol-1-yl)acetic acid] | < 6.00
COC(=O)Cn1c(C)c(-c2ccc(=O)n(Cc3ccc(F)cc3F)n2)c2ccccc21 [Example 186, methyl 2-(3-(1-(2,4-difluorobenzyl)-6-oxo-1,6-dihydropyridazin-3-yl)-2-methyl-1H-indol-1-yl)acetate] | 6.82
Cc1c(-c2ccc(=O)n(Cc3cc(F)c(F)cc3F)n2)c2ccccc2n1CC(=O)O [Example 187, 2-(2-methyl-3-(6-oxo-1-(2,4,5-trifluorobenzyl)-1,6-dihydropyridazin-3-yl)-1H-indol-1-yl)acetic acid] | 7.12
Cc1c(-c2ccc(=O)n(Cc3ccccc3F)n2)c2ccccc2n1CC(=O)O [Example 190, 2-(3-(1-(2-fluorobenzyl)-6-oxo-1,6-dihydropyridazin-3-yl)-2-methyl-1H-indol-1-yl)acetic acid] | 6.06
Cc1c(Cc2ccc(=O)n(Cc3cc(F)c(F)cc3F)n2)c2cc(F)ccc2n1CC(=O)O [Example 193, 2-(5-fluoro-2-methyl-3-((6-oxo-1-(2,4,5-trifluorobenzyl)-1,6-dihydro-pyridazin-3-yl)methyl)-1H-indol-1-yl)acetic acid] | 8.10
Cc1c(Cc2ccc(=O)n(Cc3ccncc3)n2)c2cc(F)ccc2n1CC(=O)O [Example 194, 2-(5-fluoro-2-methyl-3-((6-oxo-1-(pyridin-4-ylmethyl)-1,6-dihydro-pyridazin-3-yl)methyl)-1H-indol-1-yl)acetic acid] | 7.01
Cc1c(Cc2ccc(=O)n(Cc3cccnc3)n2)c2cc(F)ccc2n1CC(=O)O [Example 195, 2-(5-fluoro-2-methyl-3-((6-oxo-1-(pyridin-3-ylmethyl)-1,6-dihydropyridazin-3-yl)methyl)-1H-indol-1-yl)acetic acid] | 7.92
Cc1c(Cc2ccc(=O)n(Cc3ccccn3)n2)c2cc(F)ccc2n1CC(=O)O [Example 196, 2-(5-fluoro-2-methyl-3-((6-oxo-1-(pyridin-2-ylmethyl)-1,6-dihydropyridazin-3-yl)methyl)-1H-indol-1-yl)acetic acid] | 7.74
Cc1c(Cc2ccc(=O)n(CC(C)(C)O)n2)c2cc(F)ccc2n1CC(=O)O [Example 197, (5-fluoro-3-{[1-(2-hydroxy-2-methylpropyl)-6-oxo-1,6-dihydropyridazin-3-yl]-methyl}-2-methyl-1H-indol-1-yl)acetic acid] | 6.57

Other lines, results leading:

pIC50 | SMILES
6.01 | Cc1c(-c2nn(C)c(=O)c3ccccc23)c2ccccc2n1CC(=O)O [Example 174, 2-(2-methyl-3-(3-methyl-4-oxo-3,4-dihydrophthalazin-1-yl)-1H-indol-1-yl)-acetic acid]
6.76 | CCn1nc(-c2c(C)n(CC(=O)O)c3ccccc23)c2ccccc2c1=O [Example 175, 2-(3-(3-ethyl-4-oxo-3,4-dihydrophthalazin-1-yl)-2-methyl-1H-indol-1-yl)-acetic acid]
6.91 | Cc1c(-c2nn(CC3CC3)c(=O)c3ccccc23)c2ccccc2n1CC(=O)O [Example 176, 2-(3-(3-(cyclopropylmethyl)-4-oxo-3,4-dihydrophthalazin-1-yl)-2-methyl-1H-indol-1-yl)acetic acid]
6.67 | Cc1c(-c2nn(CC(F)(F)F)c(=O)c3ccccc23)c2ccccc2n1CC(=O)O [Example 177, 2-(2-Methyl-3-(4-oxo-3-(2,2,2-trifluoroethyl)-3,4-dihydrophthalazin-1-yl)-1H-indol-1-yl)-acetic acid]
7.02 | Cc1c(-c2ccc(=O)n(Cc3ccccc3)n2)c2ccccc2n1CC(=O)O [Example 180, 2-(3-(1-benzyl-6-oxo-1,6-dihydropyridazin-3-yl)-2-methyl-1H-indol-1-yl)-acetic acid]
6.64 | Cc1c(-c2ccc(=O)n(Cc3cccc(F)c3F)n2)c2ccccc2n1CC(=O)O [Example 188, 2-(3-(1-(2,3-difluorobenzyl)-6-oxo-1,6-dihydropyridazin-3-yl)-2-methyl-1H-indol-1-yl)acetic acid]
7.35 | Cc1c(-c2ccc(=O)n(Cc3ccc(F)cc3)n2)c2ccccc2n1CC(=O)O [Example 189, 2-(3-(1-(4-fluorobenzyl)-6-oxo-1,6-dihydropyridazin-3-yl)-2-methyl-1H-indol-1-yl)acetic acid]
7.19 | Cc1ccc2c(c1)c(-c1ccc(=O)n(Cc3ccccc3)n1)c(C)n2CC(=O)O [Example 191, 2-(3-(1-benzyl-6-oxo-1,6-dihydropyridazin-3-yl)-2,5-dimethyl-1H-indol-1-yl)acetic acid]
8.40 | Cc1ccc2c(c1)c(-c1nn(Cc3ccccc3)c(=O)c3ccccc13)c(C)n2CC(=O)O [Example 192, 2-(3-(3-Benzyl-4-oxo-3,4-dihydrophthalazin-1-yl)-2,5-dimethyl-1H-indol-1-yl)acetic acid]
7.34 | Cc1c(-c2nn(Cc3ccc(C(F)(F)F)cc3)c(=O)c3ccccc23)c2cc(Cl)ccc2n1CC(=O)O [Example 198, 2-(5-Chloro-2-methyl-3-(4-oxo-3-(4-(trifluoromethyl)benzyl)-3,4-dihydrophthalazin-1-yl)-1H-indol-1-yl)acetic acid]
7.72 | Cc1c(-c2nn(Cc3ccccc3C(F)(F)F)c(=O)c3ccccc23)c2cc(Cl)ccc2n1CC(=O)O [Example 199, 2-(5-chloro-2-methyl-3-(4-oxo-3-(2-(trifluoromethyl)benzyl)-3,4-dihydrophthalazin-1-yl)-1H-indol-1-yl)acetic acid]
7.35 | Cc1c(-c2nn(Cc3cccc(C(F)(F)F)c3)c(=O)c3ccccc23)c2cc(Cl)ccc2n1CC(=O)O [Example 200, 2-(5-Chloro-2-methyl-3-(4-oxo-3-(3-(trifluoromethyl)benzyl)-3,4-dihydro-phthalazin-1-yl)-1H-indol-1-yl)acetic acid]
